# Laboratory results reported in US10829499B2, “Tetracyclic heterocycle compounds useful as HIV integrase inhibitors” (MERCK SHARP & DOHME CORP., priority 2016, dated 2020).
# Like-named read-outs stand apart in the source and are kept apart here.
# Tested on: HIV-1 (NL4-3 strain)
# Test: Assay for Inhibition of HIV Replication (kinetic assay, MT4-gag-GFP reporter cell line; VIKING)
# Assay type: cell-based
# Method in brief: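 MT4-gag-GFP cells infected with HIV-1 NL4-3 at low MOI for 24 h were seeded with compound (0.4% DMSO) in medium with 0%, 10% or 100% normal human serum. GFP-positive cells were counted at 24 and 48 h, and R0 was the 48 h/24 h ratio. Inhibition was scaled to DMSO and triple-drug controls, and IC50 came from 4-parameter fits.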
# [1] = Human immunodeficiency virus 1, NL43, MT4-GFP cells infected with HIV-1 NL4-3, 0% normal human serum (NHS), read-out: VIKING IP50 (nM) with 0% NHS
# [2] = MT4-GFP cells infected with HIV-1 NL4-3, 100% normal human serum (NHS), read-out: VIKING IP50 (nM) with 100% NHS
# [3] = MT4-GFP cells infected with HIV-1 NL4-3, 0% normal human serum (NHS), read-out: VIKING IP50 (nM) with 0% NHS
# [4] = Human immunodeficiency virus 1, NL43, MT4-GFP cells infected with HIV-1 NL4-3, 100% normal human serum (NHS), read-out: VIKING IP50 (nM) with 100% NHS
Compound,IC50 [1] [nM],IC50 [2] [nM],IC50 [3] [nM],IC50 [4] [nM]
C[C@H]1CN2C(=O)c3c(O)c(=O)c(C(=O)NCc4cccc(Cl)c4F)c4n3C(CC4)C2N1S(C)(=O)=O (stereo partly drawn) [Compound 118],8.73,1280,,
C[C@H]1CN2C(=O)c3c(O)c(=O)c(C(=O)NCc4cccc(Cl)c4F)c4n3C(CC4)C2N1S(C)(=O)=O (stereo partly drawn) [Compound 119],,445,8.77,
CC(=O)N1C[C@H](C)N2C(=O)c3c(O)c(=O)c(C(=O)NCc4cccc(Cl)c4F)c4n3C(CC4)C12 (stereo partly drawn) [Compound 120],,24.5,1.19,
CC(=O)N1C[C@H](C)N2C(=O)c3c(O)c(=O)c(C(=O)NCc4cccc(Cl)c4F)c4n3C(CC4)C12 (stereo partly drawn) [Compound 121],1.45,,,308
CC(=O)N1C2C3CCc4c(C(=O)NCc5cccc(Cl)c5F)c(=O)c(O)c(n43)C(=O)N2C[C@@H]1C (stereo partly drawn) [Compound 122],2.17,,,30.1
CC(=O)N1C2C3CCc4c(C(=O)NCc5cccc(Cl)c5F)c(=O)c(O)c(n43)C(=O)N2C[C@@H]1C (stereo partly drawn) [Compound 123],,58.6,2.56,
COC1CC2C3N(C)CCN3C(=O)c3c(O)c(=O)c(C(=O)NCc4ccc(F)cc4F)c1n32 (stereo not drawn) [Compound 124],,28,7.41,
COC1CC2C3N(C)CCN3C(=O)c3c(O)c(=O)c(C(=O)NCc4ccc(F)cc4F)c1n32 (stereo not drawn) [Compound 125],,57.7,10.3,
COC1CC2C3N(C)CCN3C(=O)c3c(O)c(=O)c(C(=O)NCc4ccc(F)cc4F)c1n32 (stereo not drawn) [Compound 126],,211,2.42,
COC1CC2C3N(C)CCN3C(=O)c3c(O)c(=O)c(C(=O)NCc4ccc(F)cc4F)c1n32 (stereo not drawn) [Compound 127],,11.7,1.2,
C[C@H]1CNC2C3CCc4c(-c5nnc(Cc6ccc(F)cc6F)s5)c(=O)c(O)c(n43)C(=O)N21 (stereo partly drawn) [Compound 128],,,6.69,361
C[C@H]1CNC2C3CCc4c(-c5nnc(Cc6ccc(F)cc6F)s5)c(=O)c(O)c(n43)C(=O)N21 (stereo partly drawn) [Compound 129],,283,15.3,
C[C@H]1CN2C(=O)c3c(O)c(=O)c(-c4nnc(Cc5ccc(F)cc5F)s4)c4n3C(CC4)C2N1 (stereo partly drawn) [Compound 130],3.53,92.8,,
C[C@H]1CN2C(=O)c3c(O)c(=O)c(-c4nnc(Cc5ccc(F)cc5F)s4)c4n3C(CC4)C2N1 (stereo partly drawn) [Compound 131],,36.1,2.33,
CC12OCCCN1C(=O)c1c(O)c(=O)c(C(=O)NCc3ccc(F)cc3F)c3n1C2CC3 (stereo not drawn) [Compound 133],0.93,617,,
CC12OCCCN1C(=O)c1c(O)c(=O)c(C(=O)NCc3ccc(F)cc3F)c3n1C2CC3 (stereo not drawn) [Compound 134],,20.5,1.29,
CC12OCCCN1C(=O)c1c(O)c(=O)c(C(=O)NCc3ccc(F)cc3F)c3n1C2CC3 (stereo not drawn) [Compound 135],,1280,0.791,
CC12NCCN1C(=O)c1c(O)c(=O)c(C(=O)NCc3ccc(F)cc3F)c3n1C2CC3 (stereo not drawn) [Compound 138],,27,2.41,
CN1CCN2C(=O)c3c(O)c(=O)c(C(=O)NCc4ccc(F)cc4F)c4n3C(CC4)C12C (stereo not drawn) [Compound 140],,11.3,0.557,

Compound,IC50 [1] [nM],IC50 [2] [nM],IC50 [3] [nM],IC50 [4] [nM]
CN1CCCN2C(=O)c3c(O)c(=O)c(C(=O)NCc4ccc(F)cc4F)c4n3C(CC4)C12C (stereo not drawn) [Compound 142],,9.41,0.504,
O=C(NCc1cccc(Cl)c1F)c1c2n3c(c(O)c1=O)C(=O)N1C4CCC(C4)OC1C3CC2 (stereo not drawn) [Compound 152],5.52,2100,,
O=C(NCc1cccc(Cl)c1F)c1c2n3c(c(O)c1=O)C(=O)N1C4CCC(C4)OC1C3CC2 (stereo not drawn) [Compound 153],,95.5,4.53,
O=C(NCc1cccc(Cl)c1F)c1c2n3c(c(O)c1=O)C(=O)N1C4CCC(C4)OC1C3CC2 (stereo not drawn) [Compound 154],,79.2,4.14,
O=C(NCc1cccc(Cl)c1F)c1c2n3c(c(O)c1=O)C(=O)N1C4CCC(C4)OC1C3CC2 (stereo not drawn) [Compound 155],,7460,2.77,
O=C(NCc1ccc(F)c(Cl)c1F)c1c2n3c(c(O)c1=O)C(=O)N1C4CCC(C4)OC1C3CC2 (stereo not drawn) [Compound 156],,5270,11.8,
O=C(NCc1ccc(F)c(Cl)c1F)c1c2n3c(c(O)c1=O)C(=O)N1C4CCC(C4)OC1C3CC2 (stereo not drawn) [Compound 157],,733,12.9,
O=C(NCc1ccc(F)c(Cl)c1F)c1c2n3c(c(O)c1=O)C(=O)N1C4CCC(C4)OC1C3CC2 (stereo not drawn) [Compound 158],,16100,4,
O=C(NCc1ccc(F)c(Cl)c1F)c1c2n3c(c(O)c1=O)C(=O)N1C4CCC(C4)OC1C3CC2 (stereo not drawn) [Compound 159],,89.3,5.85,
O=C(NCc1ccc(F)cc1)c1c2n3c(c(O)c1=O)C(=O)N1C4CCC(C4)OC1C3CC2 (stereo not drawn) [Compound 160],4.14,73.1,,
O=C(NCc1ccc(F)cc1)c1c2n3c(c(O)c1=O)C(=O)N1C4CCC(C4)OC1C3CC2 (stereo not drawn) [Compound 161],,5510,2.67,
O=C(NCc1ccc(F)cc1)c1c2n3c(c(O)c1=O)C(=O)N1C4CCC(C4)OC1C3CC2 (stereo not drawn) [Compound 162],,50.4,3.9,
O=C(NCc1ccc(F)cc1)c1c2n3c(c(O)c1=O)C(=O)N1C4CCC(C4)OC1C3CC2 (stereo not drawn) [Compound 163],,1660,4.32,
O=C(NCc1cccc(F)c1F)c1c2n3c(c(O)c1=O)C(=O)N1C4CCC(C4)OC1C3CC2 (stereo not drawn) [Compound 164],4.89,1390,,
O=C(NCc1cccc(F)c1F)c1c2n3c(c(O)c1=O)C(=O)N1C4CCC(C4)OC1C3CC2 (stereo not drawn) [Compound 165],,56.1,6.42,
O=C(NCc1cccc(F)c1F)c1c2n3c(c(O)c1=O)C(=O)N1C4CCC(C4)OC1C3CC2 (stereo not drawn) [Compound 166],,50.6,5.39,
O=C(NCc1cccc(F)c1F)c1c2n3c(c(O)c1=O)C(=O)N1C4CCC(C4)OC1C3CC2 (stereo not drawn) [Compound 167],,3390,3.78,
O=C(NCc1c(F)cc(F)cc1F)c1c2n3c(c(O)c1=O)C(=O)N1C4CCC(C4)OC1C3CC2 (stereo not drawn) [Compound 168],3.72,1620,,
O=C(NCc1c(F)cc(F)cc1F)c1c2n3c(c(O)c1=O)C(=O)N1C4CCC(C4)OC1C3CC2 (stereo not drawn) [Compound 169],,42.9,2.71,

Compound,IC50 [1] [nM],IC50 [2] [nM],IC50 [3] [nM],IC50 [4] [nM]
O=C(NCc1c(F)cc(F)cc1F)c1c2n3c(c(O)c1=O)C(=O)N1C4CCC(C4)OC1C3CC2 (stereo not drawn) [Compound 170],,5360,2.59,
O=C(NCc1c(F)cc(F)cc1F)c1c2n3c(c(O)c1=O)C(=O)N1C4CCC(C4)OC1C3CC2 (stereo not drawn) [Compound 171],,74.6,2.82,
CCNC1C[C@@H]2[C@H]3OC4CCC(C4)N3C(=O)c3c(O)c(=O)c(C(=O)NCc4ccc(F)cc4F)c1n32 (stereo partly drawn) [Compound 174],30.2,,,114
CCNC1C[C@@H]2[C@H]3OC4CCC(C4)N3C(=O)c3c(O)c(=O)c(C(=O)NCc4ccc(F)cc4F)c1n32 (stereo partly drawn) [Compound 175],,78.8,20.8,
CCNC1C[C@H]2[C@H]3OC4CCC(C4)N3C(=O)c3c(O)c(=O)c(C(=O)NCc4ccc(F)cc4F)c1n32 (stereo partly drawn) [Compound 176],16.8,,,129
CCNC1C[C@H]2[C@H]3OC4CCC(C4)N3C(=O)c3c(O)c(=O)c(C(=O)NCc4ccc(F)cc4F)c1n32 (stereo partly drawn) [Compound 177],,191,11.2,
CCNC1CC2C3OCCCN3C(=O)c3c(O)c(=O)c(C(=O)NCc4c(F)cc(F)cc4F)c1n32 (stereo not drawn) [Compound 178],,6090,16,
CCNC1CC2C3OCCCN3C(=O)c3c(O)c(=O)c(C(=O)NCc4c(F)cc(F)cc4F)c1n32 (stereo not drawn) [Compound 180],,20.1,3.57,
CCNC1CC2C3OCCCN3C(=O)c3c(O)c(=O)c(C(=O)NCc4c(F)cc(F)cc4F)c1n32 (stereo not drawn) [Compound 181],,29.9,6.41,
CCNC1CC2C3OCCCN3C(=O)c3c(O)c(=O)c(C(=O)NCc4c(F)cc(F)cc4F)c1n32 (stereo not drawn) [Compound 182],,44.9,6.63,
CCNC1CC2C3OCCCN3C(=O)c3c(O)c(=O)c(C(=O)NCc4c(F)cc(F)cc4F)c1n32 (stereo not drawn) [Compound 183],,3570,13.3,
CCNC1CC2C3OCCCN3C(=O)c3c(O)c(=O)c(C(=O)NCc4c(F)cc(F)cc4F)c1n32 (stereo not drawn) [Compound 184],,167,5,
CCNC1CC2C3OCCCN3C(=O)c3c(O)c(=O)c(C(=O)NCc4cccc(F)c4F)c1n32 (stereo not drawn) [Compound 185],11.7,,,1160
CCNC1CC2C3OCCCN3C(=O)c3c(O)c(=O)c(C(=O)NCc4cccc(F)c4F)c1n32 (stereo not drawn) [Compound 186],,36.5,9.86,
CCNC1CC2C3OCCCN3C(=O)c3c(O)c(=O)c(C(=O)NCc4cccc(F)c4F)c1n32 (stereo not drawn) [Compound 187],,49.1,3.51,
CCNC1CC2C3OCCCN3C(=O)c3c(O)c(=O)c(C(=O)NCc4cccc(F)c4F)c1n32 (stereo not drawn) [Compound 188],,462,16.3,
CCNC1CC2C3OCCCN3C(=O)c3c(O)c(=O)c(C(=O)NCc4cccc(F)c4F)c1n32 (stereo not drawn) [Compound 189],,3870,11,
CCNC1CC2C3OCCCN3C(=O)c3c(O)c(=O)c(C(=O)NCc4cccc(F)c4F)c1n32 (stereo not drawn) [Compound 190],,66.4,5.26,
CCNC1CC2C3OCCCN3C(=O)c3c(O)c(=O)c(C(=O)NCc4cccc(F)c4F)c1n32 (stereo not drawn) [Compound 191],,63.6,12.6,
